Here are results for six compounds from patent US11993561B2, “Expectorant compound, preparation method thereof and use thereof” (priority 2019, dated 2024).

What all share (type): in vivo
The test system of one data set is mice. Put plainly: Expectorant test in mice using a phenol red method. Conditions: for Tracheal phenol red excretion: n=10, phenol red i.p. 1 h after dosing, sacrifice 0.5 h later; for Expectorant effect (secretion of phenol red in tracheal segment), result in words: comparison between groups. On the procedure:
In Vivo Pharmacodynamic Test—Expectorant Test in Mice Using a Phenol Red Method
In this example, the in vivo efficacy of the compounds I1, I4, I13 of the present disclosure and known compounds was tested.
Mice in the positive control group were give medicinal ammonium chloride and ambroxol hydrochloride orally, mice in the normal control group were given normal saline of the same amount, and mice the other groups were given corresponding drugs by gavage. The mice were administered by gavage once in the morning and afternoon (excluding ammonium chloride) 2 days before the experiment. After 1 hour of intragastric administration on the morning of the experiment, the mice were intraperitoneally injected with 0.5 ml of phenol red, and the mice were sacrificed 0.5 hours later. The tissue surrounding the organs was peeled off, and a section of the trachea from the thyroid cartilage to the branch of the trachea was cut off and placed in a test tube containing 2 ml of normal saline. The tube was shaken for 30 minutes, the trachea was discarded, and 0.2 ml of sodium hydroxide (1 mol/L) was added to each sample solution. The OD value was measured using a UV-visible spectrophotometer at a wavelength of 546 nm, and the absorbance values were converted into the phenol red content according to the phenol red standard curve.
The data was processed by PEMS medical statistical software.

Data set [1] in a line: Acute toxicity test in mice administered intravenously. Conditions: male, ICR, mouse, in vivo, iv. On the procedure:
(§1) Acute toxicity test of the compound of the present disclosure to mice administered intravenously
(§2) To test the acute toxicity of compounds of the present disclosure and comparative compounds, the following experiments were performed.
(§3) Compounds of the present disclosure were dissolved in water and administered to 5 ICR mice (mice of 5-week old, male, weighing 20 g±2 g). Intravenous administration was performed to determine the median lethal dose (LD50, mg/kg). Ambroxol hydrochloride was used as a control.

The next data set deals with ICR mice. The data set is described as above. As to conditions: ICR mice, intravenous. On the procedure:
as §1, §2, §3

Setting [2] is: gavage, dose 2.0 ml/kg (high dose).
The mark [3] stands for this setting: gavage, dose 0.5 ml/kg (low dose).

Structures can show the parent of a compound that is named as a salt.

Take `CC(=O)N[C@@H](CS)C(=O)O` [Acetylcysteine, acetylcysteine, reference compound]: in the data set with mice (setting [2]), the “Tracheal phenol red excretion” value is listed as 1.532 ± 0.247 ΔΔ** mg/L.

As usually defined, the LD50 is the dose at which mortality reaches 50%. `Nc1c(Br)cc(Br)cc1CN[C@H]1CC[C@H](O)CC1` [Ambroxol, ambroxol hydrochloride, reference compound]: the “Expectorant effect (secretion of phenol red in tracheal segment), result in words” value (from here on “Expectorant effect … in words”) in the data set with mice is “best effect”. Further, the “Tracheal phenol red excretion” value in the data set on mice (setting [2]) was 1.418 ± 0.352 ΔΔ** mg/L. The compound also returned a median lethal dose (LD50) in data set [1] of 268 mg/kg.

With `Cl.N` [Ammonium chloride, ammonium chloride, reference compound], the “Tracheal phenol red excretion” value with mice (oral, dose 1.0 ml/kg) was 0.875 ± 0.208 ΔΔ** mg/L.

On to `Cl.Nc1c(Br)cc(Br)cc1CN[C@H]1CC[C@H](S)CC1` [I1, trans-4-[(2-amino-3,5-dibromo-benzyl)amino]-cyclohexanethiol hydrochloride], for which the “Expectorant effect … in words” value with mice is “best effect”. The “Tracheal phenol red excretion” value was 1.225 ± 0.337 ΔΔ** mg/L with mice (setting [3]) and 1.610 ± 0.284 ΔΔ** mg/L in the data set with mice (setting [2]). The compound also returned an LD50 in data set [1] of 453 mg/kg. In addition, in the data set on ICR mice, the “LD50 compared with ambroxol hydrochloride, in words” value is given as “much higher”.

Regarding `CN(Cc1cc(Br)cc(Br)c1N)[C@H]1CC[C@H](S)CC1.Cl` [I4, trans-4-[(2-amino-3,5-dibromo-benzyl)-methyl-amino]-cyclohexanethiol hydrochloride], the “Tracheal phenol red excretion” value in the data set with mice (setting [3]) was 1.083 ± 0.312 ΔΔ** mg/L; in the data set with mice (setting [2]) it was 1.273 ± 0.275 ΔΔ** mg/L. The compound also showed an LD50 in data set [1] of 523 mg/kg. Further, the “LD50 compared with ambroxol hydrochloride, in words” value with ICR mice is given as “much higher”.

Consider `Nc1c(Br)cc(Br)cc1CN[C@H]1CC[C@H](SCCCO)CC1` [I13, trans 3-[4-(2-amino-3,5-dibromo-benzylamino)-cyclohexylsulfanyl]-propan-1-ol], for which the “Dose-effect relationship of expectorant effect” value with mice (0.5 vs 2.0 ml/kg) was “relatively obvious dose-effect relationship”. Besides, the “Expectorant effect … in words” value in the data set with mice is on record as “strongest effect”. The “Tracheal phenol red excretion” value is reported as 1.452 ± 0.351 ΔΔ** mg/L in the data set on mice (setting [3]) and 1.826 ± 0.334 ΔΔ** mg/L with mice (setting [2]). This compound also came in with an LD50 in data set [1] of 507 mg/kg. Besides, the “LD50 compared with ambroxol hydrochloride, in words” value with ICR mice was “much higher”.
